This is an account of results in patent US11155555B2, “Compounds” (Janssen Pharmaceutica NV, priority 2015, dated 2021).

For one data set, the target named is T1, FGFR1 (Homo sapiens, UniProt P11362).
T1 construct: purchased DiscoveRx Corporation (assay service)
The data set is described as follows: KINOMEscan enzyme binding assay FGFR1. The following applies: KINOMEscan (DiscoveRx); pKd = -log Kd, Kd in M. The procedure:
(§1) Enzyme Binding Assays (KINOMEscan®) Kinase enzyme binding affinities of compounds disclosed herein were determined using the KINOMEscan® technology performed by DiscoveRx Corporation, San Diego, Calif., USA (www.kinomescan.com). Table A2 reports the obtained pKd values, with Kd (M) being the inhibitor binding constant value and with pKd being −log Kd: […]

In the next data set the target is T2, FGFR2 (Homo sapiens, UniProt P21802).
T2 construct: purchased DiscoveRx Corporation (assay service)
T2 sequence (P21802 22-821): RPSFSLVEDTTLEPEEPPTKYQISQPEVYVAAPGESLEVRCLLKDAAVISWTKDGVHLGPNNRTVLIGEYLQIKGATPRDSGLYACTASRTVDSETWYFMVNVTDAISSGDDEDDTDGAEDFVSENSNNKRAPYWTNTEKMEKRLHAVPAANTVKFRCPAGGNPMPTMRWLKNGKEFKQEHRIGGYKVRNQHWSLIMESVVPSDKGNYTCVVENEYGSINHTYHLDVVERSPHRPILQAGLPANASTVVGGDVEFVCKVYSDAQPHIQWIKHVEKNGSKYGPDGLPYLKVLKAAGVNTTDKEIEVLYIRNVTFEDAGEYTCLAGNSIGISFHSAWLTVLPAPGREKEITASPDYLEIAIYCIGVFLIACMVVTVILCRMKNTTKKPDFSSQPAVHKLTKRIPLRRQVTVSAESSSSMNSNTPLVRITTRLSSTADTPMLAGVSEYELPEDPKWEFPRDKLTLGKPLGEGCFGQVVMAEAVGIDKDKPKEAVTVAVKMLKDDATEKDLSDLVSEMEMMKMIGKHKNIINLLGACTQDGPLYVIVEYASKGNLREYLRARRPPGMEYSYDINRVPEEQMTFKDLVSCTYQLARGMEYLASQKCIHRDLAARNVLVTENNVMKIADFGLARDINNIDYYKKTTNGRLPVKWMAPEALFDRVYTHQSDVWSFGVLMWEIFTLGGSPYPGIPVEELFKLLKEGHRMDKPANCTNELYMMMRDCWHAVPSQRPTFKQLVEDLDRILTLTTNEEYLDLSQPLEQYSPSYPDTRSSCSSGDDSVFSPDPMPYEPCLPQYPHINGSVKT
The data set is described as follows: KINOMEscan enzyme binding assay FGFR2. The following applies: KINOMEscan (DiscoveRx); pKd = -log Kd, Kd in M. On the procedure:
as §1

Another data set has as its target T3, FGFR3 (Homo sapiens, UniProt P22607).
T3 construct: purchased DiscoveRx Corporation (assay service)
Kind of data set: KINOMEscan enzyme binding assay FGFR3. The following applies: KINOMEscan (DiscoveRx); pKd = -log Kd, Kd in M. The procedure: as §1

A further data set has as its target T4, VEGFR2 (Homo sapiens, UniProt P35968).
T4 construct: purchased DiscoveRx Corporation (assay service)
Kind of data set: KINOMEscan enzyme binding assay VEGFR2. The following applies: KINOMEscan (DiscoveRx); pKd = -log Kd, Kd in M. The procedure: as §1

Another data set has as its target T5, FGFR4 (Homo sapiens, UniProt P22455).
T5 construct: purchased DiscoveRx Corporation (assay service)
Kind of data set: KINOMEscan enzyme binding assay FGFR4. The following applies: KINOMEscan (DiscoveRx); pKd = -log Kd, Kd in M. On the procedure: as §1

T4 sequence (P35968 20-1356): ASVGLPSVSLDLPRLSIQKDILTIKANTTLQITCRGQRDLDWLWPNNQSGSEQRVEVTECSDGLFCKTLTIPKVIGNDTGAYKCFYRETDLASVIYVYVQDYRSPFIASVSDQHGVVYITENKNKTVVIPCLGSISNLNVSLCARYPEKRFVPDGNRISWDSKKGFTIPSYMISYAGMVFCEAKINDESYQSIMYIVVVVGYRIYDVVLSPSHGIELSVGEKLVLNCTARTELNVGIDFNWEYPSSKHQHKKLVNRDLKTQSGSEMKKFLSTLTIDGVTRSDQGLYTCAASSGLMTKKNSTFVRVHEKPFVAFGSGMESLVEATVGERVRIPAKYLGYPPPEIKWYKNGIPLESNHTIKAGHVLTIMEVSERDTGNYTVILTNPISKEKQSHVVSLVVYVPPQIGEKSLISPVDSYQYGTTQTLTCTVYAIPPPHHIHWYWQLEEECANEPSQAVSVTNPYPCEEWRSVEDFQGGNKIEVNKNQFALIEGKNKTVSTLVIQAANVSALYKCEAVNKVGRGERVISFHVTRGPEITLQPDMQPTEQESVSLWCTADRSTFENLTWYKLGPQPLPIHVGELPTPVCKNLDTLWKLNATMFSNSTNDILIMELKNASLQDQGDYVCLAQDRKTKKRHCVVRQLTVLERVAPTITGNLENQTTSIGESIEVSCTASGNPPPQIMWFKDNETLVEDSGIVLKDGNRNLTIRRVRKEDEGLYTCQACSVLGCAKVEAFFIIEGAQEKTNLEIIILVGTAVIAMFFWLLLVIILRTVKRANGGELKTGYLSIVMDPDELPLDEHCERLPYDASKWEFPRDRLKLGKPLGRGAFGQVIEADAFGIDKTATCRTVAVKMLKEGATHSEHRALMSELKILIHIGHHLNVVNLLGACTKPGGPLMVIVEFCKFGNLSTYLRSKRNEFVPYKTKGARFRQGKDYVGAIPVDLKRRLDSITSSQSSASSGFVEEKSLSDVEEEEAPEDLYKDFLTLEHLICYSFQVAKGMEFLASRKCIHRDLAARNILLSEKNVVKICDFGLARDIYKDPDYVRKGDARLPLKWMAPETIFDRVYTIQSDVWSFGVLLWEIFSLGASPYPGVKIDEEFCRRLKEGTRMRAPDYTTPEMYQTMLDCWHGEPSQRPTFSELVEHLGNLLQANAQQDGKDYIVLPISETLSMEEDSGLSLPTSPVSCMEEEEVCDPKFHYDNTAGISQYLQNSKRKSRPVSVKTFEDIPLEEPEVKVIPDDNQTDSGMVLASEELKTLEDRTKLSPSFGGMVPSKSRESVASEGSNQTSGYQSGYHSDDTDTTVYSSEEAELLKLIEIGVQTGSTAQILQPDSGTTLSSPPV
T1 sequence (P11362 22-822): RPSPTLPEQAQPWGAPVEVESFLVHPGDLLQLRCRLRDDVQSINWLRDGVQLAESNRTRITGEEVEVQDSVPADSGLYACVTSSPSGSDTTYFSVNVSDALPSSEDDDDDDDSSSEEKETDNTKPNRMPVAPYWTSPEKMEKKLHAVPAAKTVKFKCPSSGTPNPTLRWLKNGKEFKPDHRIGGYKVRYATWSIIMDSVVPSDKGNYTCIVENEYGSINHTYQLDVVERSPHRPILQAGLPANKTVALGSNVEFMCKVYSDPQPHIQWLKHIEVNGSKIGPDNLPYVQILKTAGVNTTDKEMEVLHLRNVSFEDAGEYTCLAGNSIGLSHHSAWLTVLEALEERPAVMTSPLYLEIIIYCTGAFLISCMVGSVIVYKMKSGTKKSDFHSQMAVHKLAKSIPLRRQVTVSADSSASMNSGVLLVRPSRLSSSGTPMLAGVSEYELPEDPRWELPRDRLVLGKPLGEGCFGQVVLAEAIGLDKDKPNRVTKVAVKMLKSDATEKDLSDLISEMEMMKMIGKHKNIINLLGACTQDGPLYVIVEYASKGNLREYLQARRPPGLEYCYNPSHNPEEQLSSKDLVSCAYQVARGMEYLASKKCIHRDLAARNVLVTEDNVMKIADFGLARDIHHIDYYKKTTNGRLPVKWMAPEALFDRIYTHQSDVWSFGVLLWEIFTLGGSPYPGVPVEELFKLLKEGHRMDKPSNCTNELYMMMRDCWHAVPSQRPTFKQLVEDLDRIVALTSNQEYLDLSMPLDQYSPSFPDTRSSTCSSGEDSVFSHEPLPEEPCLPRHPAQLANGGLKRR
T5 sequence (P22455 22-802): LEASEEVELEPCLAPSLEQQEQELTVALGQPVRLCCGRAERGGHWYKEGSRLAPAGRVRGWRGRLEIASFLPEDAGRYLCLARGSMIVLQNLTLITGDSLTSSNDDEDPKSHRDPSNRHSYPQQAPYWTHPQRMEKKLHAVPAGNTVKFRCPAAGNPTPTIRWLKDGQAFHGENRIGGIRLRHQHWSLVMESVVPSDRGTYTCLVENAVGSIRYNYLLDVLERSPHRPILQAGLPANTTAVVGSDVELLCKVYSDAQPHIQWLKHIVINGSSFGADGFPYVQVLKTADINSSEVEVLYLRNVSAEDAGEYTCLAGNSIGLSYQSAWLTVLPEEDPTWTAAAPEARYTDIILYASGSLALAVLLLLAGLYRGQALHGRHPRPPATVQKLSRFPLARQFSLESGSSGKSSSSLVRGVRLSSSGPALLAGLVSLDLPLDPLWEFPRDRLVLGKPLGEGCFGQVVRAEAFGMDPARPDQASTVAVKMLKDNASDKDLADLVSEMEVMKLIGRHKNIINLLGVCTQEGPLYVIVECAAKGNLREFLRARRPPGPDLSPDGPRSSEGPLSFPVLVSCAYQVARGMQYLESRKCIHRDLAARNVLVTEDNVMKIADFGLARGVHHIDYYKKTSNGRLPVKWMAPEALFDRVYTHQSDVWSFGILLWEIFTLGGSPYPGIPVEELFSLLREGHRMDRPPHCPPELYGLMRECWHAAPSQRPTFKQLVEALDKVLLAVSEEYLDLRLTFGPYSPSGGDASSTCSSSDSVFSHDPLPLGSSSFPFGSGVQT
T3 sequence (P22607 23-806): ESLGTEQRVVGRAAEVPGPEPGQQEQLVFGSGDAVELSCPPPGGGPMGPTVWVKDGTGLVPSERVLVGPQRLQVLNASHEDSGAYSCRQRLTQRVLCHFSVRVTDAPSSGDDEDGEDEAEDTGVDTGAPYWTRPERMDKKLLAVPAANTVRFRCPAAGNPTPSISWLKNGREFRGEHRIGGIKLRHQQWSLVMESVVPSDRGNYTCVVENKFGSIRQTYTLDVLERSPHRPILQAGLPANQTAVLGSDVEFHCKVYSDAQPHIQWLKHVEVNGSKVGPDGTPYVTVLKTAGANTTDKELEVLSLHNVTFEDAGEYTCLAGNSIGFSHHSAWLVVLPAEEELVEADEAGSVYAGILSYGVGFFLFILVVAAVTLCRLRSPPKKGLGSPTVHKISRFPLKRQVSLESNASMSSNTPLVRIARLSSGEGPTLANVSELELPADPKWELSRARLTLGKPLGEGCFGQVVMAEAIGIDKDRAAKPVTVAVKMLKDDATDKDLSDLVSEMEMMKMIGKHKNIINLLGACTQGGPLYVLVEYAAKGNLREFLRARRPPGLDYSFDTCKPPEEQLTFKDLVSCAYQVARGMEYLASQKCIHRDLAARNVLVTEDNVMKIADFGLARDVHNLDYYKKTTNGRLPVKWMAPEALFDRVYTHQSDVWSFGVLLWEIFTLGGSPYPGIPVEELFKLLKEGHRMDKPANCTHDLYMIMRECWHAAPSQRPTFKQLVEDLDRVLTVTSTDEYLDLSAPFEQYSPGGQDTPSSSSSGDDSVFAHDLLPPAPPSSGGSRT

Usually Kd stands for the concentration at which binding is half-saturated. The low end stands for higher affinity, the high end for lower affinity. Regarding `COc1cc(OC)c(F)c(N2CCN(C(C)C)Cc3c2ccc2ncc(-c4cn[nH]c4)cc32)c1` [Compound 16], the Kd on FGFR1 was 2.29 nM; at FGFR2, 39.8 nM; at FGFR3, 7.94 nM; on VEGFR2, 275 nM; on FGFR4, 18.2 nM.
For `COc1cc(OC)c(F)c(N2CCN(C(C)C)Cc3c2ccc2ncc(-c4cnn(C)c4)cc32)c1` [Compound 2] the same measures were 1.48 nM, 6.03 nM, 4.17 nM, 93.3 nM and 8.91 nM.
Take `COc1cc(OC)c(Cl)c(N2CCN(C(C)C)Cc3c2ccc2ncc(-c4cnn(C)c4)nc32)c1Cl` [Compound 5]: the equilibrium dissociation constant (Kd) was 7.24 nM at FGFR1; 26.9 nM at FGFR2; 14.1 nM on FGFR3; 263 nM at VEGFR2; 77.6 nM at FGFR4.
For `COc1cc(OC)c(F)c(N2CCN(C(C)C)Cc3c2ccc2ncc(-c4cnn(C)c4)cc32)c1F` [Compound 12] the same measures were 3.09 nM, 19.5 nM, 10.7 nM, 115 nM and 38 nM.
The corresponding values for `COc1cc(OC)c(Cl)c(N2CCN(C(C)C)Cc3c2ccc2ncc(-c4cnn(C)c4)nc32)c1` [Compound 4] are 2.09 nM, 19.1 nM, 7.41 nM, 58.9 nM and 27.5 nM.
With `CC(C)N1CCN(c2cc(O)cc(O)c2F)c2ccc3ncc(-c4cnn(C)c4)nc3c2C1` [Compound 9], the dissociation constant (Kd) at FGFR1 is 977 nM; at FGFR2, > 3020 nM; at FGFR3 it was > 3020 nM; on VEGFR2 it was > 3020 nM; at FGFR4, > 3020 nM.
The term melting point denotes the temperature of the solid-liquid transition. As for `COc1cc(OC)c(F)c(N2CCN(C(C)C)Cc3c2ccc2ncc(-c4cnn(C)c4)nc32)c1` [Compound 1], the melting point is 166 °C. Further, the Kd on FGFR1 was 0.794 nM. At FGFR2, the Kd is 4.27 nM. Besides, on FGFR3, the Kd was 2.4 nM. At VEGFR2, this compound gave a Kd of 45.7 nM. Besides, the Kd on FGFR4 was 11 nM.
As to `COc1cc(O)cc(N2CCN(C(C)C)Cc3c2ccc2ncc(-c4cnn(C)c4)nc32)c1F` [Compound 11], the dissociation constant Kd on FGFR1 was 3.89 nM; on FGFR2 it was 44.7 nM; on FGFR3, 8.91 nM; on VEGFR2 it was 123 nM; on FGFR4, 60.3 nM.
In the case of `COc1cc(OC)c(F)c(N2CCN(C(C)C)Cc3c2ccc2ncc(-c4cn[nH]c4)nc32)c1` [Compound 3], the Kd at FGFR1 was 1.55 nM; on FGFR2, 11.7 nM; on FGFR3, 5.5 nM; at VEGFR2, 70.8 nM; at FGFR4, 15.8 nM.
